The target of this experiment is T1, Solute carrier family 26 member 9 (Homo sapiens) (UniProt Q7LBE3).
T1 sequence (whole entry): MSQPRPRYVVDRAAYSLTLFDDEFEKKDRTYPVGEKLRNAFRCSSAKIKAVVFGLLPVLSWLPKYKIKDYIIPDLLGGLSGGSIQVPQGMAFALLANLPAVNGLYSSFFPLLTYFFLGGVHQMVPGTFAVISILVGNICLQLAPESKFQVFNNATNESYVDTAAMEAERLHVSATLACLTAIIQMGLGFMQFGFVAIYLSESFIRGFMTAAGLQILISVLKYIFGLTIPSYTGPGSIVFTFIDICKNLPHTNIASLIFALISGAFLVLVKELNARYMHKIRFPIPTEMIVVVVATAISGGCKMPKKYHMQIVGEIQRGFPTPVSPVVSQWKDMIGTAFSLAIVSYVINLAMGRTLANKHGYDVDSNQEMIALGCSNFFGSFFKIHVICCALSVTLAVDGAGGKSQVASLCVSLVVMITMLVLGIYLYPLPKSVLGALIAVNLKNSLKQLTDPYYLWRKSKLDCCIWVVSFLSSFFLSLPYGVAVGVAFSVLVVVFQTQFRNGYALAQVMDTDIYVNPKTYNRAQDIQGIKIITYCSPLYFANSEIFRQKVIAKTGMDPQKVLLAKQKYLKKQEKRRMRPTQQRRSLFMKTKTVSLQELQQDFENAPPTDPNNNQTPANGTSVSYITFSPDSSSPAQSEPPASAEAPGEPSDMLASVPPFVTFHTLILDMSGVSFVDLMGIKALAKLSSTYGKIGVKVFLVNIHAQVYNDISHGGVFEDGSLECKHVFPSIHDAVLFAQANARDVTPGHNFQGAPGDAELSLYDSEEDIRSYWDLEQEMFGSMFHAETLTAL
The experiment in a line: Chloride uptake by the Anion Transporter/Exchanger Protein 9 (SLC26A9) as assessed by a Cl- sensitive FRET (Fluorescence Resonance Energy Transfer) sensor (SuperClomeleon) in HEK-293 cells stably transfected with SLC26A9 (PubChem AID: 1794832). Type of experiment: functional, cell-based. Conditions: HEK293.

For the molecule `Cl`, the proof of principle entry is “Substrate. In Comparison To Wild-Type, Cells Expressing Slc26A9 Showed A Specific Transporter Activity, Upon Substrate Addition, Detected As Significantly Higher Sensor Fluorescence Quenching”.

For `O=C(O)c1cccnc1Nc1cccc(C(F)(F)F)c1`, the Inhibition (500 µM) is over 30%.

For the origin of these results see ChEMBL document CHEMBL5209566, “Superclomeleon biosensor-based assay for SLC26A9 using HEK293 SLC26A9 JumpIn OE cells” (2022).
